Reference: patent US20250064955A1, “DRUG CONJUGATES AND METHODS OF PREPARING AND USING THE SAME” (priority 2021, published 2025)
Where a SMILES comes first, the peptide text is derived from it. [ ]: non-standard residue; d: D form. The star is where a group is joined. Dolaproine = CO[C@@H]([C@@H]1CCCN1)[C@@H](C)C(=O)O; Dil = CC[C@H](C)[C@H](NC)[C@@H](CC(=O)O)OC; X1 = C[C@@H](N*)[C@@H](O)c1ccccc1; NMeV = CN[C@H](C(=O)O)C(C)C

Key:
[1] = system: HCC1954 breast ductal carcinoma cells; assay: In vitro potency, cell viability (Cell Titer Glo 2.0), HCC1954; assay type: cell-based; settings: Homo sapiens, HCC1954, 120 h
Procedure: (§1) HCC1954 breast ductal carcinoma or SK-BR-3 cells (ATCC, Manassas, VA, USA) were seeded into 384-well white-walled culture plates and allowed to adhere for 2-4 hours. Cells were then treated with test articles at least in duplicate by addition of 5-fold serially diluted test articles prepared at 2× final concentration and incubated at 37° C. for 120 hours. Cell viability following treatment was determined by Cell Titer Glo 2.0 Assay (Promega, Madison, WI, USA) and normalized to non-treated controls. Dose-response relationships were analyzed using GraphPad Prism (La Jolla, CA, USA), and IC50 values were derived from non-linear regression analyses using a 4-parameter logistic equation.

SK-BR-3 cells = assay: In vitro potency, cell viability (Cell Titer Glo 2.0), SK-BR-3; assay type: cell-based; settings: Homo sapiens, SK-BR-3, 120 h
Procedure: as §1

CC[C@H](C)[C@@H]([C@@H](CC(=O)N1CCC[C@H]1[C@H](OC)[C@@H](C)C(=O)N[C@H](C)[C@@H](O)c1ccccc1)OC)N(C)C(=O)[C@@H](NC(=O)[C@@H](NC)C(C)C)C(C)C [MMAE, (S)-N-((3R,4S,5S)-1-((S)-2-((1R,2R)-3-(((1S,2R)-1-hydroxy-1-phenylpropan-2-yl)amino)-1-methoxy-2-methyl-3-oxopropyl)pyrrolidin-1-yl)-3-methoxy-5-methyl-1-oxoheptan-4-yl)-N,3-dimethyl-2-((S)-3-methyl-2-(methylamino)butanamido)butanamide] (H-[NMeV]V[Dil][Dolaproine]-X1)
IC50 [1]: 0.21 nM
IC50 (SK-BR-3 cells): 0.127 nM
